Reference: patent US20050148605A1, “Amide derivatives as ABL modulators” (Ambit Biosciences Corporation, priority 2003, published 2005)

Key:
ABL1(E274K) = molecular target: T1, ABL1(E274K) (Homo sapiens, UniProt P00519, E255K); experiment: Binding constant (Kd) measurement, phage-displayed kinase competition binding assay: ABL1(E274K); conditions: competition with immobilized ATP site ligand
T1 construct: made in house; host or cells: T7 bacteriophage display
Source text: (§1) Binding Constant (Kd) Measurements for Small-Molecule-Kinase Interactions
(§2) The term “ND” represents non-determined values.

ABL1(DKIN) = molecular target: T2, ABL1(DKIN) (Homo sapiens, UniProt P00519); experiment: Binding constant (Kd) measurement, phage-displayed kinase competition binding assay: ABL1(DKIN); conditions: competition with immobilized ATP site ligand
T2 construct: column label 'AB L1(DKIN)'; fused on or other part: Fused to a T7 bacteriophage particle (phage display)
T2 sequence (P00519 242-493 limits assumed): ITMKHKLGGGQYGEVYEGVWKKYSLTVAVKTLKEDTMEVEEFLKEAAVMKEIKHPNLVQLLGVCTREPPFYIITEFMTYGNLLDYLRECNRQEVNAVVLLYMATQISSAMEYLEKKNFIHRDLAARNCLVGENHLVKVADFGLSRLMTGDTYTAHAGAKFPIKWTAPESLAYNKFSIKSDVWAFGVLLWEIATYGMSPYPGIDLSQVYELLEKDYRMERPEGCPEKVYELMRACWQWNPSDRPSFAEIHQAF
Source text: as §1, §2

T1 sequence (P00519 1-1149 isoform P00519-2 E274K): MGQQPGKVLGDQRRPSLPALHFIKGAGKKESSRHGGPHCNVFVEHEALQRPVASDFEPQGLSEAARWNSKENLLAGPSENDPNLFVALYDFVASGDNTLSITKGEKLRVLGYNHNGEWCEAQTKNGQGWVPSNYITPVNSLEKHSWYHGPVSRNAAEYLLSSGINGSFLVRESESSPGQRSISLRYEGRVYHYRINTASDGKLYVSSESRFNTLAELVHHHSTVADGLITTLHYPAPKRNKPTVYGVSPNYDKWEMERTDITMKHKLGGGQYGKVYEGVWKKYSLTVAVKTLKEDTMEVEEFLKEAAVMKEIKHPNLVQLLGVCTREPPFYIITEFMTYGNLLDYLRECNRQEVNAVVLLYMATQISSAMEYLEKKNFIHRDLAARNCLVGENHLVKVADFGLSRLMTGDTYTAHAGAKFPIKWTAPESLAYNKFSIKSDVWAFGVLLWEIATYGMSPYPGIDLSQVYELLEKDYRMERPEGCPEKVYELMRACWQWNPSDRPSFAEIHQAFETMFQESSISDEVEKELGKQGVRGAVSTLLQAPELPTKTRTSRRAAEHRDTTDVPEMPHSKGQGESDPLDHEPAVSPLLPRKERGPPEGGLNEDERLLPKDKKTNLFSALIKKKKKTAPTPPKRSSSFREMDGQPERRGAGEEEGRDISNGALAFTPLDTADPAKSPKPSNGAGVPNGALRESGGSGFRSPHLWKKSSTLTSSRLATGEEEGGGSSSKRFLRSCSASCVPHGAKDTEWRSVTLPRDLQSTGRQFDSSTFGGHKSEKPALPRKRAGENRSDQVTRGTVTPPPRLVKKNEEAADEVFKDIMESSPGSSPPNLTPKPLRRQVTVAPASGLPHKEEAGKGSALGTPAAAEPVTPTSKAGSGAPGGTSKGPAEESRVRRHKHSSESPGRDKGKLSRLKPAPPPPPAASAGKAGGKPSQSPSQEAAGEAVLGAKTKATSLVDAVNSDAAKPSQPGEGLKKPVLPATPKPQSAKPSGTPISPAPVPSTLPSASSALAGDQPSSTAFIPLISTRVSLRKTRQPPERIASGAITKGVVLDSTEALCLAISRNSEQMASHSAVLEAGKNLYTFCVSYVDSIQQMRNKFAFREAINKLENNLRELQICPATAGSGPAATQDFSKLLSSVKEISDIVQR

Kd (ABL1(E274K)) [µM] | Kd (ABL1(DKIN)) [µM] | Compound
> 10 | – | O=C(Cc1ccc(OCc2ccccc2)cc1)Nc1nc2cc(Cl)ccc2o1 [Compound B15]
– | > 10 | O=C(Cc1ccc(F)cc1)Nc1cc(C2CC2)nn1-c1ccccc1 [Compound E7]
